Experimental data: PMC11369432, “Study on the uptake of Gastrodin in the liver” (Heliyon, 2024)
“And” between values parts separate entries of the source, which are not always exact repeats. Identical values can stand only once. Counter-ions that a name gives are not always drawn.

Tests used:
OATPs [1] = assay: Check of the OATPs inhibitor in rats with BSP as substrate; type: in vivo; settings: dose of 30 mg kg^−1, ELISA
Text: (§1) Selecting suitable substrates and inhibitors of OATPs and OCTs is crucial for the experiment. Therefore, our team also used OATPs and OCTs inhibitors. Based on the relevant literature, metformin hydrochloride was selected as the substrate of OCTs, and sodium sulfobromophthalide (BSP) was selected as the substrate of OATPs. […] Most of the previous studies used RIF as an inhibitor of OATPs and epinephrine as an inhibitor of OCTs. We detected drug concentration in blood samples and in the liver of rats. The concentration of metformin hydrochloride was detected by HPLC, and BSP was measured by enzyme-linked immunosorbent assay (ELISA).

OCTs [2] = assay: Check of the OCTs inhibitor in rats with metformin hydrochloride as substrate; type: in vivo
Text: as §1

[3] = Gastrodin plasma and liver concentrations and Kp in rats, control group (no inhibitor); type: in vivo, Sprague-Dawley (SD) rats
Text: (§2) The transporters involved in liver transport mainly include organic anion transport peptides (Oatps) and organic cation transporters (Octs), and these two transporters are most expressed in the liver. Therefore, this study chose Oatps and Octs as the research objects. Transport proteins affect drug efficacy and toxicity, the liver is the main organ for the metabolism of substances. […] Using the method of rats in vivo, and choose organic anion transfer peptide Oatps and organic cation transporter Octs inhibitors for the probe, after the transporters are suppressed, intravenous drip Gastrodine, drug concentrations reach homeostasis in blood drug concentration, drug absorption rate and elimination rate balance, illustrate the liver intake transporters saturated. Using HPLC determination of drug concentration in liver and blood at this time the ratio of the Kp (Kp = Css/Css drug concentration of liver blood drug concentration), and under normal circumstances (i.e., without giving inhibitors) compared to Kp, if Kp decrescent, namely that the drug transporters of the substrate. This study explore the intrinsic relationship between the uptake of Gastrodin in rat liver and the organic anion transport peptide Oatps and organic cation transporter Octs, thus preliminarily elucidating the molecular mechanism of Gastrodin uptake in the liver, provide theoretical basis for the safety of clinical combination therapy [[10], [11], [12]].
(§3) The use of experimental animals was approved by the Ethics Committee of Southwest University (Chongqing, China). We strictly followed the National and Institutional guidelines for animal protection and welfare. In total, 18 adult male Sprague-Dawley (SD) rats (SPF, weight: 150 ± 20g) were obtained from the Center of Experimental Animals, Sichuan Province People's Hospital. The rats were kept at room temperature (25 °C) with free access to food and water. They were allowed to adapt to the new environment for one week before starting induction and treatment. Following acclimatization, the experimental rats were randomly divided into three groups (n = 6) as follows: Control group (treated with Gastrodin), ADR group (treated with Gastrodin and adrenalone), and RIF group (treated with Gastrodin and rifampicin).
(§4) To clarify the role of hepatic transport proteins, the concentration of Gastrodin chosen for this experiment was 569 mg kg^−1 (converted from the concentration in mice: rat dose (mg·kg^−1) = mouse dose (mg·kg^−1)/1.44), based on the results of previous studies. An equal dose of Gastrodin was injected before intravenous drip as a loading dose, to ensure that the steady-state blood concentration (Css) of Gastrodin was reached and the transporter protein was saturated by 300 min of intravenous drip. Then, the volume of Gastrodin was computed according to the following formula: drop volume = drop speed (4 μL h^−1 g^−1) × time × weight.
(§5) Gastrodin solution: 1138.9 mg of Gastrodin extract was added to a 10 mL volumetric flask. Physiological saline was added and diluted to prepare a solution with a concentration of 113.89 mg mL^−1. Then, the solution was frozen and stored (administered at 1 mL·200g ^−1 i.v.).
(§6) The rats were fasted for 12 h before the experiment. They had free access to water. The rats were regularly weighed before the initiation of the experiment. The control group first received Gastrodin solution (569 mg kg^−1) through the caudal vein as a loading dose, followed by the caudal injection of a Gastrodin solution (569 mg kg^−1) at a rate of 4 μg h^−1·g^−1. Each rat of the RIF group was given rifampicin 2 mL·200 g^−1 via oral gavage and 1h later 569 mg kg^−1 of Gastrodin was injected. Likewise, the ADR group was injected with adrenalone (0.5 mL·200 g^−1) via the caudal vein, and 0.5 h later 569 mg kg^−1 of Gastrodin was injected. […]

[4] = parameters: method as in doi:10.4103/pm.pm_307_19; settings: mice, different doses; conforms to a two-compartment model; cited from earlier work
OATPs [5] = assay: Hepatic uptake of Gastrodin in rats after the OATPs inhibitor rifampicin (RIF group); type: in vivo, Sprague-Dawley (SD) rats
Text: as §2, §3, §4, §5
Rifampicin (RIF) solution: 90 mg of rifampicin was precisely weighed. Then, 30 mL saline was added to prepare 3 mg mL^−1 solution (administered at 2 mL·200 g ^−1 i.g.).
as §6, with “injected.” for “injected. Likewise, the ADR group was injected with adrenalone (0.5 mL·200 g^−1) via the caudal vein, and 0.5 h later 569 mg kg^−1 of Gastrodin was injected.”

[6] = Stability of Gastrodin solution (room temperature, repeated freeze-thaw); type: physicochemical; settings: Gastrodin solution stored at −20 °C
Protocol: To verify whether the sample processing and detection methods were stable, we examined both their room temperature stability and their repeated freeze-thaw stability.
Three solutions containing 50 mg mL^−1, 100 mg mL^1, and 500 mg mL^−1 of Gastrodin were first prepared and stored at room temperature. This was then measured every 6 h. Finally, the RSD was calculated, which was examined for its room temperature stability.
Three solutions of the same concentration were prepared as described above and tested immediately after preparation. They were then stored at −20 °C for 21 h, removed to allow thawing, and left at room temperature for 3 h before assay. The test was continued at a low temperature and the RSD was calculated after repeating the assay three times to investigate its repeated freeze-thaw stability.

OCTs [7] = assay: Hepatic uptake of Gastrodin in rats after the OCTs inhibitor adrenalone (ADR group); type: in vivo, Sprague-Dawley (SD) rats
Text: as §2, §3, §4, §5
Adrenalone (ADR) solution: 64 mg of […] was weighed precisely and prepared at 8 mg mL^−1 concentration (administered at 0.5 mL·200 g^−1 i.v.) using 30 % PEG400 as solvent.
as §6, with “injected.” for “injected. Likewise, the ADR group was injected with adrenalone (0.5 mL·200 g^−1) via the caudal vein, and 0.5 h later 569 mg kg^−1 of Gastrodin was injected.”

CO[C@H]1/C=C/O[C@@]2(C)Oc3c(C)c(O)c4c(O)c(c(/C=N/N5CCN(C)CC5)c(O)c4c3C2=O)NC(=O)/C(C)=C\C=C\[C@H](C)[C@H](O)[C@@H](C)[C@@H](O)[C@@H](C)[C@H](OC(C)=O)[C@@H]1C [RIF, rifampicin]
Hepatic transport of OATPs in rats (OATPs [1]): inhibited

CN(C)C(=N)N=C(N)N [metformin hydrochloride]
Hepatic concentrations of the drug after OCTs inhibitor (OCTs [2]; rats, OCTs inhibitor given): significant reduction

CNCC(=O)c1ccc(O)c(O)c1 [ADR, adrenalone]
Hepatic transportation of OCTs in rats (OCTs [2]; dose of 20 mg kg^−1, substrate metformin hydrochloride, HPLC): inhibited

OCc1ccc(O[C@@H]2O[C@H](CO)[C@@H](O)[C@H](O)[C@H]2O)cc1 [GAS, hydroxyl methyl benzene - beta - D - pyran glucoside]
KP (liver / blood concentration) ([3]; Control group, single rats, 300 min): 0.2918 and 0.2172 and 0.0618 and 0.3204 and 0.0919
Plasma concentration of GAS, 90min ([3]; Control group, single rats, Gastrodin 569 mg kg^−1 i.v. loading dose plus i.v. drip, 90 min): 418.6414 µg/mL and 490.4070 µg/mL and 858.0713 µg/mL and 839.0300 µg/mL and 374.1060 µg/mL and 714.8180 µg/mL
Plasma concentration of GAS, 180min ([3]; Control group, single rats, Gastrodin 569 mg kg^−1 i.v. loading dose plus i.v. drip, 180 min): 296.4502 µg/mL and 450.2900 µg/mL and 241.1238 µg/mL and 473.1890 µg/mL and 388.0036 µg/mL and 943.8820 µg/mL
Plasma concentration of GAS, 300min ([3]; Control group, single rats, Gastrodin 569 mg kg^−1 i.v. loading dose plus i.v. drip, 300 min): 160.2300 µg/mL and 435.3740 µg/mL and 690.0752 µg/mL and 482.2634 µg/mL and 537.2563 µg/mL and 961.3480 µg/mL
Liver concentration of GAS ([3]; Control group, single rats, liver taken at 300 min): 46.7539 µg/mL and 94.5472 µg/mL and 42.6760 µg/mL and 154.5100 µg/mL and 49.3480 µg/mL and 165.2782 µg/mL
Kp at 300 min ([3]; male, Sprague-Dawley, rat, liver / blood, intravenous, 569 mg kg^−1, Control group, n = 6): 0.14 ± 0.127
Pharmacokinetic profile [4]: non-linear
KP (liver / blood concentration) (OATPs [5]; RIF group, single rats, 300 min): 0.0695 and 0.1237 and 0.0037 and 0.0044 and 0.0041 and 0.0042
Liver concentration of GAS (OATPs [5]; RIF group, single rats, liver taken at 300 min): 143.4890 µg/mL and 54.8940 µg/mL and 33.3675 µg/mL and 48.7120 µg/mL and 41.0071 µg/mL and 101.5434 µg/mL
Plasma concentration of GAS, 90min (OATPs [5]; RIF group, single rats, rifampicin 2 mL·200 g^−1 i.g. 1 h before Gastrodin 569 mg kg^−1, 90 min): 30828.4900 µg/mL and 1684.7620 µg/mL and 8505.0480 µg/mL and 15559.1500 µg/mL and 79163.4800 µg/mL and 26044.6400 µg/mL
Plasma concentration of GAS, 180min (OATPs [5]; RIF group, single rats, rifampicin i.g. 1 h before Gastrodin 569 mg kg^−1, 180 min): 13840.5600 µg/mL and 8435.3490 µg/mL and 24589.4100 µg/mL and 8312.9910 µg/mL and 20131.4400 µg/mL and 4501.0340 µg/mL
Plasma concentration of GAS, 300min (OATPs [5]; RIF group, single rats, rifampicin i.g. 1 h before Gastrodin 569 mg kg^−1, 300 min): 2063.3640 µg/mL and 8969.1250 µg/mL and 10985.5800 µg/mL and 9971.0380 µg/mL and 23912.4400 µg/mL
Substrate of OATPs (OATPs [5]; concluded from lower KP after OATPs inhibitor, rat in vivo): likely substrate
Kp at 300 min (OATPs [5]; male, Sprague-Dawley, rat, liver / blood, intravenous, RIF group, n = 6, *p < 0.05 vs Control): 0.035 ± 0.0508
concentration at 300 min (OATPs [5]; male, Sprague-Dawley, rat, plasma, intravenous, RIF group, single rats, rifampicin i.g. 1 h before Gastrodin 569 mg kg^−1, 300 min, read-out: Plasma concentration of GAS, 300min): 444 µg/mL
Storage time with good stability [6]: at least 3 days
KP (liver / blood concentration) (OCTs [7]; ADR group, single rats, 300 min): 0.0645 and 0.0324 and 0.0463 and 0.0716 and 0.0447 and 0.1550
Plasma concentration of GAS, 90min (OCTs [7]; ADR group, single rats, adrenalone 0.5 mL·200 g^−1 i.v. 0.5 h before Gastrodin 569 mg kg^−1, 90 min): 617.7201 µg/mL and 10576.3600 µg/mL and 1294.1160 µg/mL and 1093.5800 µg/mL and 3877.7610 µg/mL
Plasma concentration of GAS, 180min (OCTs [7]; ADR group, single rats, adrenalone i.v. 0.5 h before Gastrodin 569 mg kg^−1, 180 min): 650.1415 µg/mL and 3246.9130 µg/mL and 497.0489 µg/mL and 1215.3470 µg/mL and 1883.7120 µg/mL
Plasma concentration of GAS, 300min (OCTs [7]; ADR group, single rats, adrenalone i.v. 0.5 h before Gastrodin 569 mg kg^−1, 300 min): 2255.8310 µg/mL and 2303.3090 µg/mL and 659.0208 µg/mL and 643.2905 µg/mL and 1871.4590 µg/mL
Liver concentration of GAS (OCTs [7]; ADR group, single rats, liver taken at 300 min): 25.4541 µg/mL and 73.1891 µg/mL and 106.5988 µg/mL and 47.2096 µg/mL and 28.7519 µg/mL and 290.1262 µg/mL
Substrate of OCTs (OCTs [7]; concluded from lower KP after OCTs inhibitor, rat in vivo): likely substrate
Kp at 300 min (OCTs [7]; male, Sprague-Dawley, rat, liver / blood, intravenous, ADR group, n = 6, *p < 0.05 vs Control): 0.0691 ± 0.0444
concentration at 90 min (OCTs [7]; male, Sprague-Dawley, rat, plasma, iv, ADR group, single rats, adrenalone 0.5 mL·200 g^−1 i.v. 0.5 h before Gastrodin 569 mg kg^−1, 90 min, read-out: Plasma concentration of GAS, 90min): 762 µg/mL
concentration at 180 min (OCTs [7]; male, Sprague-Dawley, rat, plasma, iv, ADR group, single rats, adrenalone i.v. 0.5 h before Gastrodin 569 mg kg^−1, 180 min, read-out: Plasma concentration of GAS, 180min): 445 µg/mL
concentration at 300 min (OCTs [7]; male, Sprague-Dawley, rat, plasma, iv, ADR group, single rats, adrenalone i.v. 0.5 h before Gastrodin 569 mg kg^−1, 300 min, read-out: Plasma concentration of GAS, 300min): 394 µg/mL
